Data from a melting point compilation (Tetko et al.).

Details: a range is the spread between reports

Compound | melting point [°C]
OCC(O)CO | 17.8 to 18.2
CCC(Br)CC | -126
CCCCCCCCS | -49.2 to -49
O=C(c1ccccc1)C1CCCCC1 | 55 to 56
Oc1ccc2[nH]ccc2c1 | 108 to 109
O=C1C(Br)=CC(=NCl)C=C1Br | 80 to 83
Ic1ccc(I)cc1 | 130 to 132
O=C(O)c1cccc([N+](=O)[O-])c1 | 141 to 142
O=Cc1ccc2ccccc2c1 | 61 to 62
COc1ccc(C=O)c(OC)c1 | 69 to 72
N#Cc1c[nH]c2ccccc12 | 180
Cc1cccc(C)c1N | 8 to 12
Oc1ccc(F)cc1 | 44.5 to 48
CN(C)CC(=O)O | 181 to 186
N#CCc1cccc(CC#N)c1 | 33 to 34
Clc1sc(Cl)c(Cl)c1Cl | 28 to 30.5
Nc1ccc(Cl)cc1 | 70 to 72.5
CCOc1ccc2ccccc2c1 | 36 to 37.5
COc1ccc(OC)c(C(C)=O)c1 | 19 to 20
CCCCCCCCCCCCCCCC(=O)Cl | 11 to 12
C=C(C)CC(C)C | -124
Cc1ccccc1Cl | -36 to -35
CC(=O)c1ccc(C)s1 | 26 to 27.5
c1ccc2c(c1)Cc1ccccc1O2 | 100 to 102

Compound | melting point [°C]
Cc1n[nH]cc1Br | 75 to 76.5
CC#CCCC | -90 to -89.6
CC(C)C(N)=O | 128 to 129
SC(c1ccccc1)(c1ccccc1)c1ccccc1 | 105 to 106
COc1ccc2[nH]ccc2c1 | 54 to 57
COC(=O)c1ccc(C=O)cc1 | 60 to 61
O=C(O)CCCCc1ccccc1 | 57.5 to 59
OCCN1CCOCC1 | -1.6 to 2
N#Cc1ccccc1Cl | 45 to 46.3
N#Cc1c(Cl)cccc1Cl | 143 to 145
CNCCO | -5 to -4.5
Brc1ccc2ccccc2c1 | 54 to 59
ClC(Cl)(Cl)c1ccccc1 | -8 to -4
COc1ccccc1C=O | 37 to 38
N#CC(C#N)=C(C#N)C#N | 198 to 199
CC(=O)OCCc1ccccc1 | -31.1 to -31
N#CC(Cl)(Cl)Cl | -44 to -42
C=CC(=O)OC | -76.5 to -75
Cn1c(=O)c2c(ncn2C)n(C)c1=O | 235 to 238
COC(=O)OC | 1 to 4
OCCN(CCO)CCO | 19.5 to 20.5
N#CCCC#N | 54 to 56
C#CC(C)(O)c1ccccc1 (stereo unspecified) | 48 to 52.3
NC(=O)c1ccc(O)cc1 | 161 to 162

Compound | melting point [°C]
BrCCCCCCBr | -2.3 to 2
COC(=O)CCCCC(=O)OC | 8 to 10.3
C=Cn1c2ccccc2c2ccccc21 | 63 to 65
Cc1ccncc1 | 3 to 3.66
Nc1cccc2cccnc12 | 65 to 70
c1cc(-c2ccncc2)ccn1 | 111 to 113
N#Cc1cccc(C=O)c1 | 76.5 to 77
C=CC(=O)OCC | -71.2 to -71
ClC1=C(Cl)C2(Cl)C3C(Cl)C=CC3C1(Cl)C2(Cl)Cl (stereo unspecified) | 95 to 95.5
Cc1ccc(C(C)C)cc1O | 1 to 2
Clc1ccccc1 | -46 to -45
CCc1cccc(C)c1C | -50 to -49.5
Nc1ccc(C2CCCCC2)cc1 | 53 to 54.5
O=[N+]([O-])c1ccccc1-c1ccccc1 | 37 to 37.2
CC(=O)Nc1ccccc1 | 114 to 115
Cc1cccc(C)c1I | 11 to 11.2
CCc1cccnc1 | -77 to -76.9
O=C(O)Cc1cccc(F)c1 | 43 to 46
O=C(Cl)c1ccco1 | -2 to -1
C/C=C\CC | -151
O=C(c1cccs1)c1cccs1 | 89 to 90
CCCc1ccccc1 | -100 to -99
O=c1cc(-c2ccccc2)oc2cc(O)cc(O)c12 | 286 to 287
